Legend:
human dendritic cells [1] = experiment: Stimulation of IL-10 secretion using an in vitro assay platform of dendritic cells; format: cell-based; conditions: human dendritic cells co-cultured 48 hours with heated LAB (1:10); supernatant ELISA; Mean±SD
Protocol: B. Stimulation of IL-10 Secretion Using an In Vitro Assay Platform of Dendritic Cells.
In order to measure the increased amount of IL-10 secretion, human dendritic cells and the above-mentioned lactic acid bacteria are co-cultured and the secretion of IL-10 is then measured so as to determine the promoting effect on inhibiting inflammatory cells from secreting cytokine. The assay procedures are listed as followings: • 1. 200 mL human blood are obtained from healthy donors; • 2. 1:1 blood isolates (Ficoll-paque) and blood are centrifuged at 400 g in 18-20° C. for 30-40 min. • 3. Cells obtained from human PBMC (Peripheral Blood Mononuclear Cell) layer are washed with buffer solution 2-3 times and suspended with appropriate culture medium such as RPMI-1640. • 4. CD14^+ monocytes are purified from PBMC cells by using CD14^+ microbeads (MiniMACS system). • 5. Cells are differentiated into dendritic cells after incubating for 6-7 days by stimulating with IL-4 and GM-CSF and differentiated dendritic cells are then collected. • 6. The lactic acid bacteria strain is activated 3 days before co-culture and is then heated for thermal death at 100° C. for 30 min. • 7. The dendritic cells and the heated lactic acid bacteria strain (1:10) are co-cultured for 48 hours. • 8. […]
The statistic results (Mean±SD) of data are analyzed in Table 4. […]

vaginitis patients = conditions: Barrons et al (2008); tampons, 4-8 weeks; cited from earlier work
human dendritic cells [2] = experiment: Inhibition of TNF-α secretion using an in vitro assay platform of dendritic cells; format: cell-based; conditions: human dendritic cells co-cultured 48 hours with heated LAB (1:10); supernatant ELISA; Mean±SD
Protocol: A. Inhibition of TNF-α Secretion Using an In Vitro Assay Platform of Dendritic Cells.
The inhibition assay for Th17 immune response is implemented by measuring TNF-α secretion after co-culture with the above-mentioned lactic acid bacteria. The assay procedures are listed as followings: • 1. 200 mL human blood are obtained from healthy donors. • 2. 1:1 blood isolates (Ficoll-paque) and blood are centrifuged at 400 g in 18-20° C. for 30-40 min. • 3. Cells obtained from human PBMC (Peripheral Blood Mononuclear Cell) layer are washed with buffer solution 2-3 times and suspended with appropriate culture medium such as RPMI-1640. • 4. CD14^+ monocytes are purified from PBMC cells by using CD14^+ microbeads (MiniMACS system). • 5. Cells are differentiated into dendritic cells after incubating for 6-7 days by stimulating with IL-4 and GM-CSF and differentiated dendritic cells are then collected. • 6. The lactic acid bacteria strain is activated 3 days before co-culture and is then heated for thermal death at 100° C. for 30 min. • 7. The dendritic cells and the heated lactic acid bacteria strain (1:10) are co-cultured for 48 hours. • 8. The supernatant of the cell culture medium is collected and used for measuring TNF-α amount by using ELISA (enzyme-linked-immunosorbent serologic assay).
The statistic results (Mean±SD) of data are analyzed in Table 3. […]

## Phytohemagglutinin [PHA]
Human dendritic cells [1]
  IL-10 Secretion: 9145 ± 118 pg/mL

## CC(=O)O [acetic acid]
Vaginitis patients
  vaginitis patients revealing improvement: 38%

## Lipopolysaccharide [LPS]
Human dendritic cells [2]
  TNF-α Secretion: 1521 ± 37 pg/mL

Reference: patent publication US9011839B2, “Anti-inflammatory and anti-vaginitis food composition and pharmaceutical composition containing Lactobacillus” (Glac Biotech Co., Ltd., priority 2010, dated 2015)
